Experimental data reported in patent US10301284B2, “Therapeutic inhibitory compounds” (LifeSci Pharmaceuticals, Inc., priority 2016, dated 2019).
Where two headings read alike, the source gives them in different places.

Biological target: human Plasma Kallikrein (Homo sapiens (Human), UniProt P03952)
Assay: In vitro enzyme inhibition of human plasma kallikrein (Pro-Phe-Arg-AMC cleavage)
Assay type: biochemical
Method: The ability of the compounds disclosed herein to inhibit human plasma kallikrein activity was quantified according to the procedures below.
A 10 mM solution of the test compound was made in DMSO. This solution was serially diluted 1:5 in DMSO to yield 2000, 400, 80, 16, 3.2, 0.64, 0.128, 0.0256 and 0.00512 μM compound test solutions. A control tube containing only DMSO is included. 16 μL of each compound test solution was combined with 384 μL of assay buffer (50 mM Tris-HCl pH 7.5, 150 mM NaCl, 0.01% Triton X-100) to yield a “4× test compound buffer stock”.
Separately, a 40 nM solution of human Plasma Kallikrein (Abcam) and a 93.6 μM solution Pro-Phe-Arg-AMC (Bachem) were made using assay buffer. These solutions are hereby referred to as 4×hPK and 2×PFR-AMC, respectively.
60 μL of each 4× test compound buffer stock was combined with 60 μL of 4×hPK to yield 120 μL of “2× test compound buffer stock/2×hPK”. 50 μL was removed from this mixture and placed into duplicate wells on a Microfluor 1Black U-bottom microtiter plate (Thermo Scientific). This plate was incubated for 5 minutes at 37° C. To each well, 50 μL of pre-warmed 2×PFR-AMC was added to start the enzymatic reaction. Cleavage of PFR-AMC was monitored in a Biotek Synergy H4 reader set at 37° C. Readings are taken every 43 seconds for 1 hour. The highest mean velocity over 20 reads (˜15 minutes) is used to calculate the IC50. The IC50 is calculated using the Gen5 (Biotek Instruments).
The ability of the compounds listed in Table 2 to inhibit human plasma kallikrein activity was determined.

[1] = human plasma kallikrein, PFR-AMC substrate, 37° C., read-out: hPK IC50

Sequence of human Plasma Kallikrein (P03952 391-638 limits assumed): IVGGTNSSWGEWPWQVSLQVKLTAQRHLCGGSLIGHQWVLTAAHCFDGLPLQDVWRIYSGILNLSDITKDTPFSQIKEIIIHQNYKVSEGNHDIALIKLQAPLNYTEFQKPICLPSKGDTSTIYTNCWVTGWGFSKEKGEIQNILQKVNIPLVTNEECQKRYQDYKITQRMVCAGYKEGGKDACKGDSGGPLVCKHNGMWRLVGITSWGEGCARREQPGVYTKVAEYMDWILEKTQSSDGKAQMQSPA
Sequence of human Plasma Kallikrein (P03952 20-390 partner limits assumed): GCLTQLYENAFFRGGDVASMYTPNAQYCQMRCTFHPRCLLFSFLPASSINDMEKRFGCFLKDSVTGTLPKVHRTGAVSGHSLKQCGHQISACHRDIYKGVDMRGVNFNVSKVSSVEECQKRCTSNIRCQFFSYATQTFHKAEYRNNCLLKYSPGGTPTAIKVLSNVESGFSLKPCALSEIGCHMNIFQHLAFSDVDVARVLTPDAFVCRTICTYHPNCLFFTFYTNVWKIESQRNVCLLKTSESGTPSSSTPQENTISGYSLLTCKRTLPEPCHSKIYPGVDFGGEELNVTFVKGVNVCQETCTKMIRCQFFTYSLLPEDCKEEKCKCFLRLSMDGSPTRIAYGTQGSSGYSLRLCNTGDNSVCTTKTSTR

SMILES | IC50 [1] [µM] | IC50 [µM]
Cc1cc(N)nc(C)c1CNC(=O)c1cn(Cc2ccc3ncc(Cl)cc3c2)c2ccccc12 [Example 11, N-((6-amino-2,4-dimethylpyridin-3-yl)methyl)-1-((3-chloroquinolin-6-yl)methyl)-1H-indole-3-carboxamide] | < 0.1 | –
Cc1cc(N)nc(C)c1CNC(=O)c1c2ccccc2nn1Cc1ccc2ncc(Cl)cc2c1 [Example 14, N-((6-amino-2,4-dimethylpyridin-3-yl)methyl)-2-((3-chloroquinolin-6-yl)methyl)-2H-indazole-3-carboxamide] | > 10 | –
Cc1cc(N)nc(C)c1CNC(=O)c1nn(Cc2ccc3ncc(Cl)cc3c2)cc1[N+](=O)[O-] [Example 18, N-((6-amino-2,4-dimethylpyridin-3-yl)methyl)-1-((3-chloroquinolin-6-yl)methyl)-4-nitro-1H-pyrazole-3-carboxamide] | < 0.1 | –
Cc1cc(N)nc(C)c1CNC(=O)c1nc(Cc2ccc3ncc(Cl)cc3c2)c2ccccn12 [Example 23, N-((6-amino-2,4-dimethylpyridin-3-yl)methyl)-1-((3-chloroquinolin-6-yl)methyl)imidazo[1,5-a]pyridine-3-carboxamide] | < 0.1 | –
Cc1cc(N)nc(C)c1CNC(=O)c1nn(Cc2ccc3ncc(Cl)cc3c2)c2cccc(N)c12 [Example 33, 4-amino-N-((6-amino-2,4-dimethylpyridin-3-yl)methyl)-1-((3-chloroquinolin-6-yl)methyl)-1H-indazole-3-carboxamide] | – | 0.1 to 1
Cc1cc(N)nc(C)c1CNC(=O)c1cn(Cc2ccc3ncc(Cl)cc3c2)c2ncnc(N)c12 [Example 34, 4-amino-7-(3-chloro-quinolin-6-ylmethyl)-7H-pyrrolo[2,3-d]pyrimidine-5-carboxylic acid (6-amino-2,4-dimethyl-pyridin-3-ylmethyl)-amide] | < 0.1 | –
Cc1cc(N)nc(C)c1CNC(=O)c1cnn(Cc2ccc3ncc(Cl)cc3c2)c1C#N [Example 40, N-((6-amino-2,4-dimethylpyridin-3-yl)methyl)-1-((3-chloroquinolin-6-yl)methyl)-5-cyano-1H-pyrazole-4-carboxamide] | 1 to 10 | –
Cc1cc(N)nc(C)c1CNC(=O)c1ncc(Cc2ccc3ncc(Cl)cc3c2)[nH]1 [Example 41, N-((6-amino-2,4-dimethylpyridin-3-yl)methyl)-5-((3-chloroquinolin-6-yl)methyl)-1H-imidazole-2-carboxamide] | 0.1 to 1 | –
O=C(NCc1n[nH]c2ccc(Cl)cc12)c1nnc(Cc2ccc3ncc(Cl)cc3c2)o1 [Example 42, N-((5-chloro-1H-indazol-3-yl)methyl)-5-((3-chloroquinolin-6-yl)methyl)-1,3,4-oxadiazole-2-carboxamide] | 0.1 to 1 | –
O=C(NCc1ccc2[nH]cc(Cl)c2c1F)c1nnc(Cc2ccc3ncc(Cl)cc3c2)o1 [Example 43, N-((3-chloro-4-fluoro-1H-indol-5-yl)methyl)-5-((3-chloroquinolin-6-yl)methyl)-1,3,4-oxadiazole-2-carboxamide] | 0.1 to 1 | –
O=C(NCc1cc2c(Cl)c[nH]c2cc1F)c1nnc(Cc2ccc3ncc(Cl)cc3c2)o1 [Example 44, N-((3-chloro-6-fluoro-1H-indol-5-yl)methyl)-5-((3-chloroquinolin-6-yl)methyl)-1,3,4-oxadiazole-2-carboxamide] | 0.1 to 1 | –
O=C(NCc1cnc2[nH]cc(Cl)c2c1)c1nnc(Cc2ccc3ncc(Cl)cc3c2)o1 [Example 45, N-((3-chloro-1H-pyrrolo[2,3-b]pyridin-5-yl)methyl)-5-((3-chloroquinolin-6-yl)methyl)-1,3,4-oxadiazole-2-carboxamide] | 0.1 to 1 | –
Nc1nccc2cc(CNC(=O)c3nnc(Cc4ccc5ncc(Cl)cc5c4)o3)ccc12 [Example 46, N-((1-aminoisoquinolin-6-yl)methyl)-5-((3-chloroquinolin-6-yl)methyl)-1,3,4-oxadiazole-2-carboxamide] | 0.1 to 1 | –
N#Cc1nn(Cc2ccc3ncc(Cl)cc3c2)cc1C(=O)NCc1ccc2[nH]cc(Cl)c2c1F [Example 47, N-((3-chloro-4-fluoro-1H-indol-5-yl)methyl)-1-((3-chloroquinolin-6-yl)methyl)-3-cyano-1H-pyrazole-4-carboxamide] | 0.1 to 1 | –
N#Cc1nn(Cc2ccc3ncc(Cl)cc3c2)cc1C(=O)NCc1n[nH]c2ccc(Cl)cc12 [Example 48, N-((5-chloro-1H-indazol-3-yl)methyl)-1-((3-chloroquinolin-6-yl)methyl)-3-cyano-1H-pyrazole-4-carboxamide] | 0.1 to 1 | –
N#Cc1nn(Cc2ccc3ncc(Cl)cc3c2)cc1C(=O)NCc1ccc2c(N)nccc2c1 [Example 49, N-((1-aminoisoquinolin-6-yl)methyl)-1-((3-chloroquinolin-6-yl)methyl)-3-cyano-1H-pyrazole-4-carboxamide] | < 0.1 | –
N#Cc1nn(Cc2ccc3ncc(Cl)cc3c2)cc1C(=O)NCc1cnc2[nH]cc(Cl)c2c1 [Example 50, N-((3-chloro-1H-pyrrolo[2,3-b]pyridin-5-yl)methyl)-1-((3-chloroquinolin-6-yl)methyl)-3-cyano-1H-pyrazole-4-carboxamide] | 0.1 to 1 | –
N#Cc1nn(Cc2ccc3ncc(Cl)cc3c2)cc1C(=O)NCc1cc2c(Cl)c[nH]c2cc1F [Example 51, N-((3-chloro-6-fluoro-1H-indol-5-yl)methyl)-1-((3-chloroquinolin-6-yl)methyl)-3-cyano-1H-pyrazole-4-carboxamide] | 0.1 to 1 | –
N#Cc1nn(Cc2cc(F)c3ncc(Cl)cc3c2)cc1C(=O)NCc1cc2c(Cl)c[nH]c2cc1F [Example 53, N-((3-chloro-6-fluoro-1H-indol-5-yl)methyl)-1-((3-chloro-8-fluoroquinolin-6-yl)methyl)-3-cyano-1H-pyrazole-4-carboxamide] | < 0.1 | –
N#Cc1nn(Cc2cc(F)c3ncc(Cl)cc3c2)cc1C(=O)NCc1n[nH]c2ccc(Cl)cc12 [Example 55, N-((5-chloro-1H-indazol-3-yl)methyl)-1-((3-chloro-8-fluoroquinolin-6-yl)methyl)-3-cyano-1H-pyrazole-4-carboxamide] | 0.1 to 1 | –
N#Cc1nn(Cc2cc(F)c3ncc(Cl)cc3c2)cc1C(=O)NCc1cnc2[nH]cc(Cl)c2c1 [Example 56, N-((3-chloro-1H-pyrrolo[2,3-b]pyridin-5-yl)methyl)-1-((3-chloro-8-fluoroquinolin-6-yl)methyl)-3-cyano-1H-pyrazole-4-carboxamide] | < 0.1 | –
N#Cc1nn(Cc2cc(F)c3ncc(Cl)cc3c2)cc1C(=O)NCc1ccc2[nH]cc(Cl)c2c1F [Example 57, N-((3-chloro-4-fluoro-1H-indol-5-yl)methyl)-1-((3-chloro-8-fluoroquinolin-6-yl)methyl)-3-cyano-1H-pyrazole-4-carboxamide] | 0.1 to 1 | –
Cc1cc(N)nc(C)c1CNC(=O)c1cn(Cc2cc(S(N)(=O)=O)c3ncc(Cl)cc3c2)nc1C#N [Example 60, N-((6-amino-2,4-dimethylpyridin-3-yl)methyl)-1-((3-chloro-8-sulfamoylquinolin-6-yl)methyl)-3-cyano-1H-pyrazole-4-carboxamide] | < 0.1 | –
Cc1cnc2c(C#N)cc(Cn3cc(C(=O)NCc4c(C)cc(N)nc4C)c(C(N)=O)n3)cc2c1 [Example 63, N4-((6-amino-2,4-dimethylpyridin-3-yl)methyl)-1-((8-cyano-3-methylquinolin-6-yl)methyl)-1H-pyrazole-3,4-dicarboxamide] | 0.1 to 1 | –
Cc1cc(N)nc(C)c1CNC(=O)c1cn(Cc2cc(S(C)(=O)=O)c3ncc(Cl)cc3c2)nc1C#N [Example 68, N-((6-amino-2,4-dimethylpyridin-3-yl)methyl)-1-((3-chloro-8-(methylsulfonyl)quinolin-6-yl)methyl)-3-cyano-1H-pyrazole-4-carboxamide] | < 0.1 | –
Cc1cc(N)nc(C)c1CNC(=O)c1cnn(Cc2cc(F)c3ncc(Cl)cc3c2)c1C#N [Example 70, N-((6-amino-2,4-dimethylpyridin-3-yl)methyl)-1-((3-chloro-8-fluoroquinolin-6-yl)methyl)-5-cyano-1H-pyrazole-4-carboxamide] | > 10 | –
Cc1cc(N)nc(C)c1CNC(=O)c1cnn(Cc2cc(F)c3ncc(Cl)cc3c2)c1C(N)=O [Example 71, N4-((6-amino-2,4-dimethylpyridin-3-yl)methyl)-1-((3-chloro-8-fluoroquinolin-6-yl)methyl)-1H-pyrazole-4,5-dicarboxamide] | > 10 | –
Cc1cc(N)nc(C)c1CNC(=O)c1cn(Cc2cc(C(N)=O)c3ncc(Cl)cc3c2)nc1C#N [Example 72, 6-((4-(((6-amino-2,4-dimethylpyridin-3-yl)methyl)carbamoyl)-3-cyano-1H-pyrazol-1-yl)methyl)-3-chloroquinoline-8-carboxamide] | < 0.1 | –
Cc1cc(N)nc(C)c1CNC(=O)c1nn(Cc2ccc3ncc(Cl)cc3c2)c2ccnc(C#N)c12 [Example 76, N-((6-amino-2,4-dimethylpyridin-3-yl)methyl)-1-((3-chloroquinolin-6-yl)methyl)-4-cyano-1H-pyrazolo[4,3-c]pyridine-3-carboxamide] | < 0.1 | –
